Test results as given in patent publication US12636291B2, “Compositions and methods relating to use of agonists of ALPHA5-containing GABAA receptors” (Centre for Addiction and Mental Health, priority 2019, dated 2026).

Tested on: Layer II/III pyramidal cells of prefrontal cortex (PFC)
Assay: Golgi staining morphological analysis of PFC pyramidal cells
Format: in vivo, mouse
Details: for spine density versus branch orders, overall: FIG. 17A; for spine density versus branch orders, basal dendrites: FIG. 17B; for spine density versus branch orders, apical dendrites: FIG. 17C; for spine density at 30 micron intervals from the soma, overall: FIG. 18A; for spine density at 30 micron intervals from the soma, basal dendrites: FIG. 18B; for spine density at 30 micron intervals from the soma, apical dendrites: FIG. 18C
Procedure: Details of the animals, materials, and methods used are provided following the discussion section below. Briefly, all studies discussed below were conducted using three groups of animals designated “Young” (2 months of age at the beginning of the 8-week study, 4 months of age at time of testing; “Old” (22 months of age at beginning of study, 24 months of age at time of testing); and “Treatment” (“Old” mice who received GL-II-73 in the drinking water for 8 weeks prior to evaluation of cognitive ability and pyramidal cell morphology). The last study further included a fourth group of animals, “Treatment+Washout” which were treated the same as the “Treatment” group except that the GL-II-73 was removed for a 1 week “wash-out” period prior to evaluation of pyramidal cell morphology.
Table 1 summarizes the results of a quantitative assessment of the morphological properties of Layer II/III pyramidal cells of prefrontal cortex (PFC) between Young, Old, and Treatment groups. […] Check marks represent countable spines; X's represent uncountable spines. The total number of sampled neurons in the PFC study was 72 cells with a total of 1,888 dendritic segments, 193,698 total dendritic lengths (μm), and 199,529 spine counts, respectively.
Table 2 summarizes the results of a quantitative assessment of the morphological properties of Layer II/III pyramidal cells of prefrontal cortex (PFC) between Young, Old, Old-Treatment, and Old-washout groups. As noted above, mice assigned to the “Young” group were 2 months of age at the beginning of the 8-week study and 4 months of age at time of testing; mice assigned to the “Old” group were 22 months of age at beginning of study, 24 months of age at time of testing; mice assigned to the “Old-Treatment” group were the same age as the “Old” group and received GL-II-73 in their drinking water for 8 weeks prior to evaluation; and mice assigned to the “Old-washout” group were the same age and treatment as the “Old-Treatment” group except that the GL-II-73 was removed for a 1 week “wash-out” period prior to evaluation. Differences in total dendritic lengths, overall spine counts, and overall spine density between groups were determined via ANOVA analysis.
Drug preparation and administration: The compound GL-II-73 was administered in the drinking water for 8 weeks, and made fresh every other day to prevent any deterioration of the compound in the water at room temperature. The solution was prepared at 30 mg/kg for an estimated volume of 8 ml/mouse/day, based on previous calculations. For the pilot study in the 5×FAD mouse model, the compound GL-II-73 was prepared for intra peritoneal injection only, at a dose of 10 mg/kg. Vehicle solution was made of 85% distilled water, 14% propylene glycol and 1% tween-80.
Brain collection and Golgi staining: Twenty-four hours after the completion of the behavioral testing, mice were euthanized using cervical dislocation. Brains were carefully collected from the skull, rinsed with MilliQ water and immersed in the Golgi staining solution provided by Neurodigitech (San Diego, CA). Six hours after the beginning of the incubation, the solution was changed to provide fresh solution. Then brains were left incubating for 14 days at room temperature, in the dark. For better results, vials containing the brains were gently swirled 3 times a week. After the incubation period, the staining solution was discarded and replaced by a storage solution and brains (n=4 per group) were shipped to Neurodigitech for morphological analysis.
Slice preparation: Brains were cut at 40 μm thickness using a cryostat and mounted on glass slides. The slides included serial coronal sections that covered the anterior-to-posterior axis of the brain. The sampling of ROIs included the basal and apical dendrites of pyramidal cells in Layers II/III of PFC. […]

[1] = Table 1, first study, Old, Treatment group, 4 samples
[2] = Table 2, washout study, Old, Treatment group, 4 samples
[3] = Table 2, Old, Washout group, 4 samples
[4] = washout study, FIG. 15B, Treatment vs Old mice, p<0.05
[5] = washout study, FIG. 15B, Washout vs Old mice, p<0.05
[6] = washout study, FIG. 16B, Old+Treatment vs Old mice, p<0.05
[7] = washout study, FIG. 16B, Washout vs Old mice, p<0.05
[8] = washout study, Old+Treatment vs Old mice, p<0.05
[9] = washout study, Washout vs Old mice, p<0.05

`C#Cc1ccc2c(c1)C(c1ccccc1F)=N[C@H](C)c1c(C(=O)N(C)C)ncn1-2` (stereo in doubt) [GL-II-73, 8-ethynyl-6-(2-fluorophenyl)-N,N,4-trimethyl-4H-benzo[f]imidazo[1,5-a][1,4]diazepine-3-carboxamide] was tested, and the Total segments (Table 1, first study, Old, Treatment group (GL-II-73 in drinking water 8 weeks), 4 samples) was 666, the Overall spinal density [1] was 1.01 and the “Total lengths (microns)” value [1] was 66,656 microns. The total spine counts [1] was 67,107, the Total segments (Table 2, washout study, Old, Treatment group (8 weeks GL-II-73), 4 samples) was 1180 and the Overall spinal density [2] was 1.11. For the same compound, the “Total lengths (microns)” value [2] was 58395 microns, the total spine counts [2] was 64863 and the Total segments (Table 2, Old, Washout group (8 weeks GL-II-73, then 1 week wash-out), 4 samples) was 1253. For the same compound, the Overall spinal density [3] was 1.17, the “Total lengths (microns)” value [3] was 59414 microns and the total spine counts [3] was 69305. The total dendritic lengths (first study, FIG. 3A, treatment group vs young mice, p>0.05) was “no significant difference in total dendritic length between the young mice and the treatment group”, the “total dendritic lengths, basal dendrite” value (first study, FIG. 3B, between groups, p>0.05) was “no difference was found in the basal dendrite between groups” and the “total dendritic lengths, apical dendrites” value (first study, FIG. 3B, treatment group vs old mice, p<0.05) was “higher total dendritic lengths of apical dendrites than old mice”. The total spine counts (first study, FIG. 4A, treatment group vs old mice, p<0.05) was “higher spine counts than old mice”, the “total spine counts, apical dendrites” value (first study, FIG. 4B, treatment group vs old mice, p<0.05) was “higher spine count than old mice” and the “total spine counts, basal dendrites” value (first study, FIG. 4B, treatment group vs young mice, p>0.05) was “no difference in both basal and apical dendrites between young mice and the treatment group”. For the same compound, the overall spine density (first study, FIG. 5A, treatment group vs old mice, p<0.05) was “higher density than old mice”, the “spine density, apical dendrites” value (first study, FIG. 5B, treatment group vs old mice, p>0.05) was “no difference between old mice and the treatment group” and the “spine density × branch orders, overall” value (first study, FIG. 6A, treatment group vs old mice, p<0.05) was “higher density at the 1st branch order than old mice”. The “spine density × branch orders, basal dendrites” value (first study, FIG. 6B, treatment group vs old mice, p<0.05) was “significantly higher density at the 1st branch order than old mice”, the “spine density × branch orders, apical dendrites” value (first study, FIG. 6C, treatment group vs old mice, p<0.05) was “higher density at the 1st order than old mice” and the “spine density × every 30 micron interval from soma, overall” value (first study, FIG. 7A, Sholl analysis, treatment group vs old mice, p<0.05) was “higher density at 180 micron interval from soma than old mice”. The “spine density × every 30 micron interval from soma, apical dendrites” value (first study, FIG. 7C, treatment group vs old mice, p<0.05) was “higher density at 180 micron interval from soma of the dendritic field than old mice”, the “frequency of intersections × 30 micron interval relative to soma, overall” value (first study, FIG. 8A, old vs treatment group, p<0.05) was “significant reductions at a distance of 120-150 micron from the soma between old and young mice as well as between old and the treatment group” and the “frequency of intersections × 30 micron interval, basal dendrites” value (first study, FIG. 8B, old vs treatment group, p>0.05) was “a trend of decrease was found at 120-150 micron interval from soma between Old and Young as well as old and the treatment group”. The “frequency of intersections × 30 micron interval, apical dendrites” value (first study, FIG. 8C, treatment group vs old mice, p<0.05) was “higher frequency at 120-150 micron interval from soma than old mice”, the total spine counts (washout study, FIG. 15A, Old+Treatment vs Old mice, p<0.05) was “more spine counts than Old mice” and the total spine counts (washout study, FIG. 15A, Washout (1 week after 8 weeks GL-II-73) vs Old mice, p<0.05) was “more spine counts than Old mice”. The “total spine counts, apical dendrites” value [4] was “higher spine counts”, the “total spine counts, basal dendrites” value [4] was “higher spine counts” and the “total spine counts, apical dendrites” value [5] was “higher spine counts”. The “total spine counts, basal dendrites” value [5] was “higher spine counts”, the overall spine density (washout study, FIG. 16A, Old+Treatment vs Old mice, p<0.05) was “higher spine density than Old mice” and the overall spine density (washout study, FIG. 16A, Washout vs Old mice, p<0.05) was “higher spine density than Old mice”. The “spine density, apical dendrites” value [6] was “Old mice exhibited a lower spine density than Young, Old+Treatment and Washout mice”, the “spine density, basal dendrite” value [6] was “Old mice showed a significant decrease of spine density in the basal dendrite as compared to Young, Old+Treatment and Washout mice” and the “spine density, apical dendrites” value [7] was “Old mice exhibited a lower spine density than Young, Old+Treatment and Washout mice”. For the same compound, the “spine density, basal dendrite” value [7] was “Old mice showed a significant decrease of spine density in the basal dendrite as compared to Young, Old+Treatment and Washout mice”, the “spine density versus branch orders, overall” value [8] was “higher spine density at the 2nd to 6th” and the “spine density versus branch orders, overall” value [9] was 3rd to 6th branch orders. For the same compound, the “spine density versus branch orders, basal dendrites” value [8] was “higher density at the 5th branch order than Old mice”, the “spine density versus branch orders, basal dendrites” value [9] was “higher density at the 5th branch order than Old mice” and the “spine density versus branch orders, apical dendrites” value [8] was “higher density at the 2nd branch order than Old mice”. For the same compound, the “spine density versus branch orders, apical dendrites” value [9] was “higher spine density at the 5th to 6th branch orders than Old mice”, the “spine density at 30 micron intervals from the soma, overall” value [8] was “higher spine density at 150 um to 210 um from soma” and the “spine density at 30 micron intervals from the soma, overall” value [9] was “higher spine density at 90 um to 210 um from soma”. For the same compound, the “spine density at 30 micron intervals from the soma, basal dendrites” value [8] was “higher density between 150 um and 180 um from soma”, the “spine density at 30 micron intervals from the soma, basal dendrites” value [9] was “higher density between 120 um and 180 um from the soma than Old mice” and the “spine density at 30 micron intervals from the soma, apical dendrites” value [8] was “higher density at 180 um to 210 um from soma”. The “spine density at 30 micron intervals from the soma, apical dendrites” value [9] was “higher spine density at 120 um to 210 um from soma”.
